Legend:
Staphylococcus aureus [1] = type: cell-based; conditions: for Biofilm Formation MBIC50 / Biofilm Formation MBIC90: doses 25-2000 μM
Experimental: (§1) For all assays, overnight cultures grown in the appropriate medium were used to inoculate fresh medium at an initial cell density of 5×10^5 colony-forming units (CFU) per ml. Cell density was confirmed by colony count of aliquots taken immediately following inoculation of the test strain.
Biofilm formation was assessed using a microtiter plate assay as previously described (Beenken et al., 2003, Infection and Immunity 71:4206-11) except that 2-fold serial dilutions (0.0125-0.4 mg/ml, 0.0125-0.4% excipient in solution) of 220D-F2 were included in the BM. Controls for each experiment were the wild-type strain and its isogenic sarA mutant assayed in the absence of 220D-F2. The minimum biofilm inhibiting concentration (MBIC) was defined as the lowest concentration at which 220D-F2 inhibited biofilm formation to a level ≧90% (for MBIC90) or ≧50% (for MBIC50) than that observed with the parent strain in the absence of 220D-F2. […]
(§2) Ten commercially available phytochemical constituents reported in the literature to have been isolated from R. ulmifolius (Table 4) were purchased and examined for their prophylactic efficacy in the prevention of biofilm formation using a static microtiter plate biofilm assay. Ferulic acid, kaempferol, ursolic acid, quercetin dehydrate, caffeic acid, ellagic acid, and oleanolic acid were purchased from MP BioMedicals (Solon, Ohio, USA); quercetin-3-O-glucuronide and tiliroside from Chromadex (Irvine, Calif., USA); and gallic acid from Acros Organics (NJ, USA). Compounds were tested for growth and biofilm inhibitory activity at doses ranging from 25-2000 μM. To determine the minimum inhibitory concentration (MIC) for each fraction, strains of S. aureus were grown in 37° C. in cation adjusted Muller-Hinton broth (CAMHB). MIC and MBC were determined following Clinical and Laboratory Standards Institute […] broth microdilution guidelines. Briefly, strains were inoculated into 0.1 ml CAMBH containing varying concentrations of the compound. For MIC, optical density (OD600) was assessed immediately after inoculation and again after 18 hours using Biotek Synergy II microplate reader. The MIC was defined as the lowest concentration that inhibited growth to a level greater than or equal to 90% (for MIC90) or greater than or equal to 50% (for MIC50) by comparison to untreated cultures.

Staphylococcus aureus [2] = experiment: MIC, CLSI broth microdilution (growth inhibition); type: cell-based; conditions: doses 25-2000 μM
Experimental: as §1
Briefly, test strains were inoculated into 0.1 ml CAMHB containing 220D-F2 at concentrations ranging from 0.138-4 mg/ml (0.138-4% excipient in solution). For the MIC, optical density (OD600) was assessed immediately after inoculation and again after 18 hrs using a Biotek Synergy II microplate reader. Corrections for extract color, which can alter the OD output, were done as previously described (Quave et al., 2008, supra). […] The MBC was determined by taking colony counts of aliquots taken from each well after 24 hrs and it was defined as the lowest concentration at which the initial density of viable cells was reduced by ≧90% (for MBC90) or ≧50% (for MBC50) by comparison to the untreated control. […] For these experiments, 10 ml cultures were grown at 37° C. in 25 ml Erlenmeyer flasks in BM with constant shaking (200 rpm).
as §2

UAMS-1 = experiment: in vitro catheter assay, established biofilm; type: cell-based, Staphylococcus aureus; conditions: catheters colonized without extract; 220D-F2 0.2 mg/ml, daptomycin 10 μg/ml (10× breakpoint MIC)
Experimental: UAMS-1 was grown on 1 cm catheter segments as previously described (Weiss et al., 2009b, Antimicrobial Agents and Chemotherapy 53:2475-2482). After 24 hrs, the BM medium was replaced with BM medium containing 220D-F2 (0.2 mg/ml) and/or daptomycin. […] The medium was replaced in its entirety at 24 hr intervals for 7 days. The therapeutic response of UAMS-1 to daptomycin in the presence of 220D-F2 was assessed by comparison to UAMS-929 grown in the absence of 220D-F2 but exposed to daptomycin as previously described (Weiss et al., 2009a, 2009b, supra). […] After each 24 h interval, catheters were removed from each treatment group and rinsed with PBS before removing bacteria for plate counts as previously described (Weiss et al., 2009a, 2009b, supra).
This assay was also used to assess the prophylactic activity of 220D-F2. In this case, the test compounds were added to the BM at the time of inoculation rather than after a 24 hr colonization period. After 24 hr incubation in the presence of 220D-F2, the catheters were processed for plate counts as described above.
Catheters were colonized with UAMS-1 in the absence of any extract. […] The antibiotics tested were daptomycin, clindamycin, vancomycin, and oxacillin.

Staphylococcus aureus [3] = conditions: Durig et al. 2010; cited from earlier work

Row | Molecule | Biofilm Formation MBIC50 (Staphylococcus aureus [1]) [µM] | Biofilm Formation MBIC90 (Staphylococcus aureus [1]) [µM] | Growth MBIC50 (Staphylococcus aureus [2]) [µM] | Growth MBIC90 (Staphylococcus aureus [2]) [µM] | average colony counts at day 7 (UAMS-1) | biofilm inhibition of S. aureus, previous studies (Staphylococcus aureus [3]) | anti-biofilm activity at doses well below any growth inhibitory effects (Staphylococcus aureus [1]; among 10 phytochemicals)
1 | O=C(O)[C@H]1OC(Oc2c(-c3ccc(O)c(O)c3)oc3cc(O)cc(O)c3c2=O)[C@H](O)[C@@H](O)[C@@H]1O (stereo partly drawn) [Quercetin-3-O-glucuronide] | >2000 | >2000 | >2000 | >2000 | – | – | –
2 | O=c1c(O)c(-c2ccc(O)c(O)c2)oc2cc(O)cc(O)c12 [Quercetin Dihydrate] | 543 ± 21 | 1987 ± 21 | 1720 ± 20 | 1903 ± 29 | – | – | –
3 | O=C(O)/C=C/c1ccc(O)c(O)c1 [Caffeic Acid] | >2000 | >2000 | >2000 | >2000 | – | – | –
4 | O=C(O)c1cc(O)c(O)c(O)c1 [Gallic Acid] | 713 ± 32 | 2010 ± 10 | >2000 | >2000 | – | – | –
5 | CCCCCCCCCC(=O)N[C@@H](Cc1c[nH]c2ccccc12)C(=O)N[C@H](CC(N)=O)C(=O)N[C@@H](CC(=O)O)C(=O)N[C@@H]1C(=O)NCC(=O)N[C@@H](CCCN)C(=O)N[C@@H](CC(=O)O)C(=O)N[C@H](C)C(=O)N[C@@H](CC(=O)O)C(=O)NCC(=O)N[C@H](CO)C(=O)N[C@@H]([C@H](C)CC(=O)O)C(=O)N[C@@H](CC(=O)c2ccccc2N)C(=O)O[C@@H]1C [daptomycin] | – | – | – | – | 1.01×10^7 CFU/catheter | – | –
6 | Oleanolic Acid | 190 ± 26 | 940 ± 35 | 1077 ± 15 | 1613 ± 31 | – | – | –
7 | O=c1c(O)c(-c2ccc(O)cc2)oc2cc(O)cc(O)c12 [Kaempferol] | 560 ± 53 | 773 ± 6 | 1640 ± 10 | 1787 ± 42 | – | – | –
8 | O=C(/C=C/c1ccc(O)cc1)OC[C@H]1O[C@@H](Oc2c(-c3ccc(O)cc3)oc3cc(O)cc(O)c3c2=O)[C@H](O)[C@@H](O)[C@@H]1O [Tiliroside] | >2000 | >2000 | >2000 | >2000 | – | – | –
9 | O=c1oc2c(O)c(O)cc3c(=O)oc4c(O)c(O)cc1c4c23 [Ellagic Acid] | 38 ± 13 | 763 ± 32 | >2000 | >2000 | – | not an effective biofilm inhibitor | meaningful anti-biofilm activity
10 | Ursolic Acid | 207 ± 32 | 397 ± 6 | 640 ± 46 | 763 ± 32 | – | – | –

— patent publication US9351492B2, “Anti-biofilm compositions and methods for using” (priority 2010, dated 2016)
